In a melting point compilation (Tetko et al.; mined from patent text by program, amines drawn as free bases though some values may be those of a salt):

SMILES | melting point [°C]
CN1CCC(c2c[nH]c3ccc(OS(=O)(=O)c4ccc(F)c(F)c4F)cc23)CC1 | 160 to 162
Cc1nc(N2CCN(Cc3ccccc3)S2(=O)=O)sc1C(=O)NCc1cccnc1 | 140 to 142
OC1(c2ccc3c(c2)OCO3)CCN(CC=Cc2ccccc2)CC1 | 114 to 115
CN1C(=O)COc2cccc3nc4c(c1c23)CCCC4 | 176 to 178
Cc1ccc(C(=O)Nc2ccc3[nH]cc(C4CCN(C)CC4)c3n2)s1 | 123 to 127
COC(=O)c1c2nc3ccccc3c-2[nH]c2ccccc12 | 152 to 154
NNc1cc(OC2CCCC2)c(Cl)cc1F | 77 to 79
Cn1cc(C2=C(c3c4n(c5ccccc35)CCC(CCN=[N+]=[N-])C4)C(=O)NC2=O)c2ccccc21 (stereo not given) | 262 to 264
Cc1cccc2c(=O)n3c(nc12)C(=O)c1cc(F)ccc1-3 | 255 to 257
Cc1cc([N+](=O)[O-])cc2c(Cl)c(C#N)cnc12 | 210 to 212
CC(=O)NC(=Cc1ccc(OC(C)=O)cc1)C(=O)O | 236 to 237
Cc1c(CN2CCOCC2)sc2c(Br)c3ccccc3c(-c3cc(Br)c(O)c(Br)c3)c12 | 237 to 240
CC(=O)c1ccc(CC(C)C)c(C#N)c1 | 71 to 72
O=C(O)C(=O)c1cc(F)c(OCCOc2ccc3ccccc3c2)c(F)c1 | 129 to 130
NC(=O)c1ccc2nccn2c1 | 202 to 204
CCOc1nn(-c2ccc(C(F)(F)F)cn2)cc1CCCOc1cc(OC)ccc1CC(=O)O | 147 to 148
Nc1ccc(-n2ncnc2-c2ccccc2)cc1 | 161 to 163
COc1ccc2[nH]c(C(=O)N3CC(CCl)c4c3cc(N)c3ccccc43)cc2c1 (stereo not given) | 250 to 255
COc1cc(C(=O)NS(=O)(=O)c2ccccc2C)ccc1Cc1cccc2ccc(CCCC(=O)N(C)C)cc12 | 166 to 168
O=C1c2ccccc2C(=O)c2cc(S(=O)(=O)O)ccc21 | 208 to 211

SMILES | melting point [°C]
COC(=O)c1cc(C)c(-c2cccc(O)c2C)c(C)c1 | 149
COc1ccc(C(=O)c2ccc(SCc3ccccc3)s2)cc1 | 103 to 105
Cc1cc(C)cc(N(CCO)Cc2ccc3nc(NCCCN4CCOCC4)n(Cc4nc(C)ccc4O)c3c2)c1 | 180
NC(=O)c1nnn(Cc2cc(Cl)c(C(=O)c3ccc(Cl)cc3)c(Cl)c2)c1N | 198 to 200
C=C(c1ccccc1)c1ccc(NC(=S)NC(=O)OC)c(NC(=S)NC(=O)OC)c1 | 182 to 184
COCn1c(C(=O)O)cc2cccc(NS(=O)(=O)c3ccccn3)c21 | 199 to 200
COC(=O)CCCc1cc2nc(Cl)ccc2n1S(=O)(=O)c1ccc(C(C)C)cc1 | 75
CCCCCCCCCCN(CCC12CC3CC(CC(C3)C1)C2)C(=O)NCCCc1ccncc1 | 75 to 76
Clc1cc(Br)c2oc3c(Cl)c(Br)c(Cl)c(Br)c3c2c1 | 220 to 222
Brc1ccc(C2=NOCCS2)cc1 | 114 to 115
COc1ccc(Nc2nccc(-c3ccc(N4CCNCC4)nc3)n2)cn1 | 160 to 165
COCCOc1cc2nncc(Oc3cc(O)c(C)cc3F)c2cc1OC | 267 to 273
Nc1ccnn1-c1c(F)c(F)c(C(F)(F)F)c(F)c1F | 103 to 104
Cc1cc(-c2nc3cc(Cl)cc(Cl)c3c(=O)[nH]2)cc(C)c1OCCN1CCCC1 | 209 to 210
CC(C)c1cc2c(cc1CSCC(=O)O)OCO2 | 83 to 84
O=[N+]([O-])c1ccc(O)c(COCCO)c1 | 132
COC(=O)C=C1C=C(C(C)(C)C)C(=O)C(C(C)(C)C)=C1 | 87 to 89
Cn1c(C(F)(F)F)cc(=O)n(-c2cc(OCC(F)(F)F)c(Cl)cc2F)c1=O | 136 to 138
COc1ccccc1NC(=O)NC1CC(N)(C(=O)O)C2C(C(=O)O)C12 (stereo not given) | > 250
Clc1ccc(C2c3ccc(Cl)cc3-c3ncncc32)cc1 (stereo not given) | 158 to 163
